In data set [1] the test system is Erythrocyte. Put plainly: Hemolytic activity in sheep RBC assessed as reduction in hemoglobin at 256 uM incubated for 1 hr. It is filed as ADME, cell-based, Ovis aries.
Data set [2] is described as follows: Cytotoxicity against mouse RAW264.7 cells assessed as reduction in cell viability at 20 uM incubated for 24 hrs by MTT assay. The note with it: read-out: INH. Format: cell-based.
Data set [3] is described as follows: Cytotoxicity against mouse NIH/3T3 cells assessed as reduction in cell viability at 20 uM incubated for 24 hrs by MTT assay. Format: cell-based, NIH3T3. The settings on record: NIH/3T3 cells, read-out: INH. (Formazan colour is commonly taken as a measure of viable cells.)
Data set [4] relates to Staphylococcus aureus. Put plainly: Antibacterial activity against Staphylococcus aureus KCTC 1621 assessed as reduction in bacterial growth incubated for 24 hrs by CLSI based broth dilution method. The settings on record: read-out: MIC100. It is filed as functional.
For data set [5], the system named is Staphylococcus epidermidis. Put plainly: Antibacterial activity against Staphylococcus epidermidis KCTC 1917 assessed as reduction in bacterial growth incubated for 24 hrs by CLSI based broth dilution method. Format: functional. The note with it: read-out: MIC100. A general note: Dilution methods test growth across graded concentrations, often in twofold steps.

In data set [6] the test system is Bacillus subtilis. Put plainly: Antibacterial activity against Bacillus subtilis KCTC 3068 assessed as reduction in bacterial growth incubated for 24 hrs by CLSI based broth dilution method. The settings on record: read-out: MIC100. It is filed as functional.
Data set [7] has as its system Staphylococcus aureus. Put plainly: Antibacterial activity against methicillin-resistant Staphylococcus aureus CCARM 3089 assessed as reduction in bacterial growth incubated for 24 hrs by CLSI based broth dilution method. Format: functional. The settings on record: read-out: MIC100.
Data set [8] concerns Staphylococcus aureus. Put plainly: Antibacterial activity against methicillin-resistant Staphylococcus aureus CCARM 3090 assessed as reduction in bacterial growth incubated for 24 hrs by CLSI based broth dilution method. It is filed as functional. The note with it: read-out: MIC100.
Data set [9] concerns Staphylococcus aureus. Put plainly: Antibacterial activity against methicillin-resistant Staphylococcus aureus CCARM 3095 assessed as reduction in bacterial growth incubated for 24 hrs by CLSI based broth dilution method. It is filed as functional. The settings on record: read-out: MIC100.
The subject of data set [10] is Enterococcus faecium. Put plainly: Antibacterial activity against vancomycin-resistant Enterococcus faecium ATCC 51559 assessed as reduction in bacterial growth incubated for 24 hrs by CLSI based broth dilution method. The settings on record: read-out: MIC100. It is filed as functional.
The test system of data set [11] is Escherichia coli. Put plainly: Antibacterial activity against Escherichia coli KCTC 1682 assessed as reduction in bacterial growth incubated for 24 hrs by CLSI based broth dilution method. It is filed as functional. The note with it: read-out: MIC100.
Data set [12] has as its system Pseudomonas aeruginosa. Put plainly: Antibacterial activity against Pseudomonas aeruginosa KCTC 1637 assessed as reduction in bacterial growth incubated for 24 hrs by CLSI based broth dilution method. The settings on record: read-out: MIC100. Format: functional.
Data set [13] has as its system Salmonella typhimurium. Put plainly: Antibacterial activity against Salmonella typhimurium KCTC 1926 assessed as reduction in bacterial growth incubated for 24 hrs by CLSI based broth dilution method. The settings on record: Salmonella enterica, read-out: MIC100. Format: functional, Salmonella enterica subsp. enterica serovar Typhimurium.
A short description of data set [14]: Antibacterial activity against multidrug-resistant Pseudomonas aeruginosa CCARM 2095 assessed as reduction in bacterial growth incubated for 24 hrs by CLSI based broth dilution method. It is filed as functional. The note with it: read-out: MIC100.
A short description of data set [15]: Antibacterial activity against multidrug-resistant Pseudomonas aeruginosa CCARM 2109 assessed as reduction in bacterial growth incubated for 24 hrs by CLSI based broth dilution method. Format: functional. The note with it: read-out: MIC100.
Data set [16] deals with Candida albicans. Put plainly: Antifungal activity against Candida albicans KCTC 7965 assessed as reduction in fungal growth incubated for 24 hrs by CLSI based broth dilution method. It is filed as functional. The note with it: read-out: MIC100.
The subject of data set [17] is Candida albicans. Put plainly: Antifungal activity against Candida albicans KCTC 7121 assessed as reduction in fungal growth incubated for 24 hrs by CLSI based broth dilution method. It is filed as functional. The settings on record: read-out: MIC100.
For data set [18], the system named is Erythrocyte. Put plainly: Hemolytic activity in sheep RBC assessed as reduction in hemoglobin incubated for 1 hr. It is filed as ADME, cell-based, Ovis aries.
The test system of data set [19] is Bacteria. Put plainly: Antibacterial activity against Gram positive bacteria assessed as reduction in bacterial growth incubated for 24 hrs by CLSI based broth dilution method. It is filed as functional. The settings on record: read-out: MIC100.
Data set [20] deals with Bacteria. Put plainly: Antibacterial activity against Gram negative bacteria assessed as reduction in bacterial growth incubated for 24 hrs by CLSI based broth dilution method. The note with it: read-out: MIC100. Format: functional.
Data set [21] deals with Saccharomyces cerevisiae. Put plainly: Antifungal activity against yeast assessed as reduction in fungal growth incubated for 24 hrs by CLSI based broth dilution method. It is filed as functional. The settings on record: read-out: MIC100.
Data set [22] is described as follows: Therapeutic index, ratio of HC10 for sheep RBC to geometric mean MIC for gram positive bacteria. It is filed as toxicity. The settings on record: sheep red blood cells, read-out: TI.
Data set [23] is described as follows: Therapeutic index, ratio of HC10 for sheep RBC to geometric mean MIC for gram negative bacteria. It is filed as toxicity. The settings on record: sheep red blood cells, read-out: TI.
The nature of data set [24]: Therapeutic index, ratio of HC10 for sheep RBC to geometric mean MIC for yeast. Format: toxicity. The settings on record: sheep red blood cells, read-out: TI.
The nature of data set [25]: Retention time of the compound by RP-HPLC method. It is filed as physicochemical.
Data set [26] concerns Escherichia coli. Put plainly: Bacteriostatic activity against Escherichia coli KCTC 1682 assessed as reduction in colony forming unit at 0.5 times MIC measured for 24 hrs by time kill assay. Format: functional.
Data set [27] deals with RAW264.7. Put plainly: Antiinflammatory activity against mouse RAW264.7 cells assessed as reduction in LPS-induced nitrite level at 5 uM incubated for 24 hrs by Griess reagent based assay relative to control. It is filed as functional. For orientation: The Griess reaction detects nitrite, a stable product of nitric oxide.
In data set [28] the test system is RAW264.7. Put plainly: Antiinflammatory activity against mouse RAW264.7 cells assessed as reduction in LPS-induced TNFalpha level at 10 uM incubated for 24 hrs by […] relative to control. It is filed as functional.

Active and inactive are the calls of the source. The rule behind the calls is not given here.

As for H-QLVPLAIKIYRAWKRR-NH2, the Activity result in data set [1] is recorded as “Non-Toxic”. Further, the cytotoxicity at 24 h, 20 µM in data set [2] is 35%; in [3], 50%. The MIC in data set [4] turned out to be 8 µM; in data set [5] it was 16 µM; in [6] it was 16 µM; in data set [7], 32 µM; in [8], 16 µM; in data set [9], 32 µM. The MIC in data set [10] stood at 32 µM; in data set [11] it was 32 µM; in data set [12] it was 16 µM; in data set [13], 16 µM; in data set [14] it was 32 µM; in data set [15] it was 32 µM. The MIC in data set [16] came to 8 µM; in data set [17] it was 16 µM; in data set [19], 21.7 µM; in data set [20] it was 25.6 µM; in [21], 12 µM. For the same molecule, the HC10 in data set [18] amounted to 180 µM. Also, the selectivity ratio in data set [22] amounted to 8.3; in [23], 7; in data set [24] it was 15. Besides, in data set [25], the Retention_time turned out to be 24.1 min.
In the case of `CCn1cc(C(=O)O)c(=O)c2ccc(C)nc21`, in data set [26], the outcome was inactive.
As to H-LAKKIYRAWKRW-NH2, in data set [1], the Activity entry is recorded as “Non-Toxic”. Also, the cytotoxicity at 24 h, 20 µM in data set [2] and in data set [3] was less than 10% in each case. Further, the MIC in [4] was determined as 4 µM; in data set [5], 8 µM; in [6] it was 4 µM; in [7], 32 µM; in data set [8] it was 16 µM; in data set [9], 16 µM. The MIC in data set [10] came out at 16 µM; in [11], 16 µM; in [12], 4 µM; in [13] it was 2 µM; in data set [14], 16 µM; in data set [15], 32 µM. In addition, the MIC amounted to 8 µM in data set [16]; 8 µM in data set [17]; 13.7 µM in data set [19]; 14 µM in data set [20]; 8 µM in data set [21]. Moreover, the HC10 in data set [18] was greater than 256 µM. Further, the figures for the selectivity ratio in data set [22], in [23] and in data set [24] were 37.4, 36.6 and 64, respectively. Further, the inhibition (commonly the drop in the measured response relative to a control, in per cent) at 5 µM in data set [27] is less than 10%. Moreover, the inhibition at 10 µM in [28] is less than 10%. Also, the Retention_time in data set [25] came to 17.1 min.
In the case of H-LAKKIYRAWKRR-NH2, the Activity result in data set [1] is “Non-Toxic”. Besides, the cytotoxicity at 24 h, 20 µM in data set [2] and in data set [3] was less than 10% each time. Further, the MIC was found to be 4 µM in data set [4]; 8 µM in data set [5]; 8 µM in [6]; 32 µM in data set [7]; 16 µM in data set [8]; 16 µM in data set [9]. Further, the MIC was determined as 16 µM in [10]; 8 µM in data set [11]; 4 µM in [12]; 4 µM in [13]; 32 µM in [14]; 32 µM in [15]. The MIC was 8 µM in data set [16]; 8 µM in data set [17]; 14.2 µM in data set [19]; 16 µM in data set [20]; 8 µM in data set [21]. In [18], the HC10 was greater than 256 µM. Further, the selectivity ratio was 36.1 in data set [22], 32 in data set [23] and 64 in data set [24]. Besides, the inhibition at 5 µM in data set [27] was less than 10%. Further, the inhibition at 10 µM in data set [28] is less than 10%. For the same molecule, the Retention_time in [25] is listed as 14.1 min.
Take H-VPLAIKIYRAWKRR-NH2: the Activity result in [1] is “Non-Toxic”. Also, the cytotoxicity at 24 h, 20 µM in [2] and in data set [3] was less than 10% in each case. The MIC in data set [4] came to 8 µM; in [5], 16 µM; in [6] it was 4 µM; in data set [7], 32 µM; in data set [8], 32 µM; in [9] it was 32 µM. Also, the MIC in data set [10] came to 16 µM; in [11], 16 µM; in [12] it was 8 µM; in data set [13], 8 µM; in data set [14], 32 µM; in [15], 32 µM. Besides, the MIC in [16] was 16 µM; in [17], 16 µM; in data set [19], 20 µM; in data set [20], 19.2 µM; in data set [21], 16 µM. In addition, the HC10 in data set [18] was greater than 256 µM. Moreover, the selectivity ratio in data set [22] is 25.6; in data set [23], 26.7; in data set [24], 32. In [25], this molecule had a Retention_time of 21.7 min.
As for H-LAKKIYRKWKRW-NH2, in data set [1], the Activity entry is given as “Non-Toxic”. In addition, the cytotoxicity at 24 h, 20 µM in data set [2] and in data set [3] was less than 10% throughout. Further, the MIC in data set [4] stood at 4 µM; in data set [5] it was 4 µM; in [6], 4 µM; in data set [7] it was 16 µM; in data set [8] it was 16 µM; in data set [9], 16 µM. Also, the MIC in [10] was found to be 8 µM; in data set [11], 8 µM; in [12] it was 4 µM; in [13] it was 2 µM; in [14], 16 µM; in data set [15], 8 µM. In addition, the MIC came out at 8 µM in [16]; 8 µM in [17]; 9.7 µM in [19]; 7.6 µM in [20]; 8 µM in data set [21]. Moreover, the HC10 in data set [18] is greater than 256 µM. The selectivity ratio was determined as 52.8 in [22], 67.4 in data set [23] and 64 in data set [24]. For the same molecule, the inhibition at 5 µM in [27] was less than 10%. Also, the inhibition at 10 µM in [28] was less than 10%. In data set [25], this molecule had a Retention_time of 15.1 min.

The record behind these values is ChEMBL document CHEMBL4765389, “Antimicrobial and anti-inflammatory activities of short dodecapeptides derived from duck cathelicidin: Plausible mechanism of bactericidal action and endotoxin neutralization” (Eur J Med Chem, 2020).
